Assay results reported in patent publication US20230158152A1, “PROTEOLYSIS REGULATOR AND METHOD FOR USING SAME” (MEDSHINE DISCOVERY INC., priority 2020, published 2023).

Test system: human lung cancer NCI-H2228 cells subcutaneous xenograft tumor
Assay: In vivo pharmacodynamic study in subcutaneous xenograft tumor NOD SCID mouse model of human lung cancer NCI-H2228 cells
Design: species or system NOD SCID mice
Settings: 50 mg/kg subcutaneous injection once a day
Procedure: Human lung cancer cell NCI-H2228 (ATCC® CRL-5935™) was cultured in vitro in an adherent monolayer in RPMI 1640 medium supplemented with 10% fetal bovine serum, 100 U/mL penicillin and 100 μg/mL streptomycin in an incubator at 37° C. and 5% CO2. Cells were passaged by routine digestion with trypsin-EDTA twice a week. When the cell saturation was 80%-90% and the number met the requirement, the cells are collected, counted, and inoculated.
NOD SCID mice, female, 6-8 weeks old, weighing 18-22 grams.
0.2 mL (10×10^6 cells) of NCI-H2228 cells (with matrigel, v/v 1:1) were subcutaneously inoculated into the right back of each mouse. The administration by group was started when the average tumor volume reached 171 mm^3. One administration cycle comprised seven days, with administration once a day. The assay compounds were administered by subcutaneous injection for a total of four cycles. The subcutaneous injection doses of the assay compounds WX001 and WX002 were both 50 mg/kg. Tumor diameter was measured twice a week with a vernier caliper, and tumor volume was measured in cubic millimeters and calculated by the following formula: V=0.5a×b^2, where a and b are the long and short diameters of the tumor, respectively. The tumor-inhibitory efficacy of the assay compounds was evaluated by using TGI (%). TGI (%) reflects a tumor growth inhibition rate. TGI (%)=[1−(Average tumor volume at the end of administration of a treatment group−Average tumor volume at the beginning of administration of the treatment group)/(Average tumor volume at the end of treatment of a vehicle control group−Average tumor volume at the beginning of treatment of the vehicle control group)]×100%.

## Cc1cc(Nc2ncc(Cl)c(Nc3ccccc3S(=O)(=O)C(C)C)n2)c(OC(C)C)cc1C1CCN(CC(=O)NCCOc2ccc3occ(C4CCC(=O)NC4=O)c3c2)CC1 (stereo not drawn) [WX001]
Day 1
  Tumor volume (Day 1): 172 ± 12 mm^3
Day 28
  TGI (Day 28): 111.22%
  Tumor volume (Day 28): 102 ± 5 mm^3
